Assay results from US20110251135A1, “INHIBITORS OF PERITONEAL SEEDING OF CANCER CELLS” (University of Utah Research Foundation, priority 2008, published 2011).
Entries after “also recorded” stand apart in the source; their conditions may differ.

Tests used:
[1] = tested on: HCT-116 xenografts; assay: Subcutaneous colon cancer xenograft in athymic mice; format: in vivo, mouse; conditions: HCT-116 subcutaneous xenografts; BAY 11-7085 1 mg/kg twice weekly for 28 days vs DMSO
Experimental: (§1) DLD-1, HCT-116, and HT-29 cells were cultured for 6 days in soft agar in the presence of DMSO (control), 10 μM BAY 11-7082, or 10 μM BAY 11-7085. The data points represent the means of colony counts per field (20×) performed in 5 different regions of the culture dishes. The data shown represent a typical result of two separate experiments. FIG. 2B and FIG. 2C are graphs that show athymic mice received subcutaneous injections of HT-29 (FIG. B) or HCT-116 (FIG. C) cells, followed by […] of BAY 11-7085 (dark bars) or DMSO (white bars) intraperitoneally twice weekly. The bars represent the 25-75% ranges of the tumor volumes and the horizontal lines in the bars are the medians. Using the Kruskal-Wallace statistical test to compare the median tumor volumes between BAY 11-7085 and DMSO yielded a p-value of 0.005 for HT-29 cells but >0.05 for HCT-116 cells.
(§2) HT-29 and HCT-116 cells were harvested in 0.25% trypsin-PBS-EDTA, washed once in media and PBS, and resuspended in PBS at 1 million cells per 200 μL. One million cells were injected either subcutaneously in the backs or intraperitoneally in 5 week old female nu/nu athymic mice (Charles River Labs). For the mice with subcutaneous tumors, the tumors were allowed to establish themselves for 10 days after which they were randomized to BAY 11-7085 or DMSO. For the mice with intraperitoneal tumors, the mice received DMSO or BAY 11-7085 (5 mg/kg) 24 hours before the cancer cells were injected intraperitoneally. […] Subcutaneous tumor sizes were determined by measuring the length and width with calipers. These studies were approved by the University of Utah Institutional Review Board and Institutional Animal Care and Use Committee and performed in the Animal Resource Center. Mice were euthanized when they experienced a greater than 10% loss in body weight or if they appeared ill. Post-mortem examinations included sectioning of kidney, lung, and liver tissues which were stained with hematoxylin and eosin followed by examination for tissue toxicity/damage by an experienced mouse pathologist (E.J.E.) who was blinded to therapy.
(§3) HCT-116 and HT-29 cell lines were used to generate subcutaneous tumors in athymic female mice. The mice were subsequently randomized to be treated with vehicle (DMSO) alone or BAY 11-7085 […] twice weekly for 28 days.

[2] = tested on: HT-29 xenografts; assay: as above; format: in vivo, mouse
Experimental: as §1, §2, §3

[3] = tested on: NF-κB; assay: NF-κB binding activity assay (TRANS-AM) in HT-29 cells; format: cell-based, human
Experimental: The transiently suspended cells were lysed and allowed to bind to DNA oligonucleotides, containing the NF-κB consensus binding site, that were immobilized to 96-well plates. NF-κB protein bound to the oligonucleotides was detected by an antibody to the p65 subunit that only recognized p65 that is bound to DNA. The positive control was HeLa cells that were stimulated with TNFα. A control was performed using excess free NF-κB oligonucleotides (Competitor). […] NF-κB binding activity was determined by the TransAM assay as in FIG. 5A. […] The data shown represent typical results of three separate experiments. […] An immunoblot for COX-2 was performed.
Activation of NF-κB was also determined using the TRANS-AM™ assay (Active Motif, Carlsbad, Calif.) per the manufacturer's instructions. (Renard et al., “Development of a sensitive multi-well colorimetric assay for active NF-κB,” Nucleic Acids Res 29, E21, 2001). Briefly, cell monolayers on 60 mm dishes were washed with ice-cold PBS and removed by incubating in trypsin-PBS or scraping. The cells were centrifuged for 10 minutes at 1,000 rpm at 4° C. and resuspended for 10 minutes in 100 μL of 4° C. lysis buffer (20 mM HEPES (pH 7.5), 350 mM NaCl, 20% glycerol, 1% Igepal-CA630, 1 mM MgCl2, 0.5 mM EDTA, 0.1 mM EGTA, 1 μL of 1 M dithiothreitol and 10 μL of protease inhibitor cocktail (proprietary) per mL of lysis buffer). The lysates were centrifuged for 20 minutes at 14,000 g at 4° C. Lysates containing 5 μg of total protein were added to 20 μL of lysis buffer per well in 96-well dishes containing immobilized oligonucleotides corresponding to the NF-κB consensus DNA binding site (SEQ ID NO:2) (5′-[…]-3′). […] 100 μL of stop solution (0.5M H2SO4) was added to each well after which the absorbance was determined on a plate spectrophotometer at 450 nm. Specificity of binding was determined using 200-fold excess wildtype NF-κB oligonucleotides added at the time the cell lysates were added to the wells.
The same NF-κB binding assay was used to determine whether NF-κB inhibitors could diminish the activation of NF-κB by readhesion. […]

## CC(C)(C)c1ccc(S(=O)(=O)/C=C/C#N)cc1 [BAY 11-7085, (2E)-3-[4-(tertiarybutylphenyl)sulfonyl]-2-propenenitrile]
[1]
  tumor volumes vs control group: no statistically significant overall difference in the tumor volumes
[2]; HT-29 subcutaneous xenografts, BAY 11-7085 1 mg/kg twice weekly for 28 days vs DMSO
  tumor volumes vs control group: statistically significant overall reduction in the tumor volumes
[2]; athymic mice, compound alone, cell line not given
  colon cancer xenograft growth: inhibit colon cancer xenograft growth
[3]; adherent cells, increasing concentrations, up to 50 μM, 8 hours
  constitutive NF-κB activation in adherent cells: relatively unaffected; also recorded: could not be inhibited
[3]; as little as 10 μM BAY 11-7085
  NF-κB activation induced by readhesion of transiently suspended colon cancer cells: almost totally inhibited
[3]; transiently suspended HT-29, increasing concentrations, 8 hours
  NF-κB activation caused by readhesion (TRANS-AM): dose-related inhibition of this NF-κB activation
